{"source": "ChEMBL document CHEMBL5131569", "about": "“SAGE-718: A First-in-Class N-Methyl-d-Aspartate Receptor Positive Allosteric Modulator for the Potential Treatment of Cognitive Impairment” (J Med Chem, 2022)", "key": {"Mus musculus [1]": {"tested_on": "Mus musculus", "test": "Reversal of DOI-induced hyperlocomotion in CD-1 mouse assessed as reduction in rearing at 7.5 mg/kg, ip administered 90 mins prior to DOI induction and measured upto 30 mins post DOI treatment (reference value: 59.8 +/- 8.6 Counts)", "assay_type": "functional", "conditions": "time <= 120 min, 2 h"}, "[2]": {"test": "Metabolic stability in rat hepatocytes assessed as clearance at 10 uM measured upto 120 mins by LC-MS/MS analysis", "assay_type": "ADME, cell-based, Hepatocyte", "conditions": "2 h"}, "[3]": {"test": "Drug concentration in CD-1 mouse brain at 7.5 mg/kg, ip administered for 90 mins", "assay_type": "ADME, organism-based", "conditions": "read-out: Ct"}, "[4]": {"test": "Clearance in Beagle dog by LC-MS/MS analysis", "assay_type": "ADME, Canis lupus familiaris", "conditions": "in vivo"}, "Mus musculus [5]": {"tested_on": "Mus musculus", "test": "Reversal of DOI-induced hyperlocomotion in CD-1 mouse assessed as reduction in distance travel at 3 mg/kg, ip administered 90 mins prior to DOI induction and measured upto 30 mins post DOI treatment (reference value: 7.8 +/- 0.8 meter)", "assay_type": "functional", "conditions": "time <= 120 min, 2 h"}, "[6]": {"biological_target": "Potassium voltage-gated channel subfamily A member 5 (Homo sapiens, UniProt P22460)", "sequence (P22460 whole entry)": "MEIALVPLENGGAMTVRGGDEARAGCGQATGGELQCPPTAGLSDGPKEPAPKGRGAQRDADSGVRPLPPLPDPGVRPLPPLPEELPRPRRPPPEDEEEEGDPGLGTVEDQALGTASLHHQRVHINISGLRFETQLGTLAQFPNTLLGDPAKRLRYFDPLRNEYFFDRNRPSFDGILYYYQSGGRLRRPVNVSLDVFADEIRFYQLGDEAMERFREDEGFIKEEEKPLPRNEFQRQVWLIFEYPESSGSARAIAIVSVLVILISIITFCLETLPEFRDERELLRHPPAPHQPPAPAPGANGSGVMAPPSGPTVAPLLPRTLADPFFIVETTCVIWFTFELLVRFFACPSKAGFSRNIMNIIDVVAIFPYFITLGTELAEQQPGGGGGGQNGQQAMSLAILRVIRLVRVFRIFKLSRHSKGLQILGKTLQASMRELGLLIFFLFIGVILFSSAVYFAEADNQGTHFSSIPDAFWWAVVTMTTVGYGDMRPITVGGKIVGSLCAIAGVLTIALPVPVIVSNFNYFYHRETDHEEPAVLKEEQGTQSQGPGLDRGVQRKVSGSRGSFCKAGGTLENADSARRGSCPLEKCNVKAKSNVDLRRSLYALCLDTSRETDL", "test": "Inhibition of Kv1.5 (unknown origin) by patch clamp method"}, "Mus musculus [7]": {"tested_on": "Mus musculus", "test": "Reversal of DOI-induced hyperlocomotion in CD-1 mouse assessed as reduction in distance travel at 7.5 mg/kg, ip administered 90 mins prior to DOI induction and measured upto 30 mins post DOI treatment (reference value: 7.8 +/- 0.8 meter)", "assay_type": "functional", "conditions": "time <= 120 min, 2 h"}, "[8]": {"biological_target": "Voltage-gated inwardly rectifying potassium channel KCNH2 (Homo sapiens, UniProt Q12809)", "sequence (Q12809 whole entry)": "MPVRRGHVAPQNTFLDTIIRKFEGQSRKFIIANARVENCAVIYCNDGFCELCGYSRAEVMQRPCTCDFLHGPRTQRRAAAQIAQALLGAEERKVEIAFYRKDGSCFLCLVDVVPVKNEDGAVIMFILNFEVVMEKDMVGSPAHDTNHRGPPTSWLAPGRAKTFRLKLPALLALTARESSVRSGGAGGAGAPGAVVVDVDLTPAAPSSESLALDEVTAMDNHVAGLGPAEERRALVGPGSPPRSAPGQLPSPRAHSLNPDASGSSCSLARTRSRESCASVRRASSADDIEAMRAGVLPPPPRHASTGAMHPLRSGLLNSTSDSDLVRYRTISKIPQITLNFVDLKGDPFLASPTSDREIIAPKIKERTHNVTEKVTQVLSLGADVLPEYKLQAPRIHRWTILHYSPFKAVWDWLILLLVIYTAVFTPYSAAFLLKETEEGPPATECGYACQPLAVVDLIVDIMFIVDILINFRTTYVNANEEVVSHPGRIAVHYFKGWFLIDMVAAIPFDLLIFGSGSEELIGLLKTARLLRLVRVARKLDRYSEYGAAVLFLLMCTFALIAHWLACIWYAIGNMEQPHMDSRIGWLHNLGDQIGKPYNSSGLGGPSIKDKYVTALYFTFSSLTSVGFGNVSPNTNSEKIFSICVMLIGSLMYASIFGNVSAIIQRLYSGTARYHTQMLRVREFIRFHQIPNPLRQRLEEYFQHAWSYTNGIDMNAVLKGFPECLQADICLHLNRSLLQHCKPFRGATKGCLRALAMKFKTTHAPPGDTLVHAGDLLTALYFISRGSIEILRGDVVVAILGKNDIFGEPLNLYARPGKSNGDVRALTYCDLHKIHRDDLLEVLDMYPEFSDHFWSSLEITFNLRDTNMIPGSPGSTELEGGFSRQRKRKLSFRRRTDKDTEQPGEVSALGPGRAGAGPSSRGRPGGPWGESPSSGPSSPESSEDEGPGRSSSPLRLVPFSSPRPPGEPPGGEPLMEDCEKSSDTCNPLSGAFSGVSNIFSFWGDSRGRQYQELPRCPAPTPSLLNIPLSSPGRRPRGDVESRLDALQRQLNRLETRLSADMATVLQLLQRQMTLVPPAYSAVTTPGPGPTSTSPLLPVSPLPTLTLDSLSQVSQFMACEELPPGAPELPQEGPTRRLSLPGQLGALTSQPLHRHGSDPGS", "test": "Inhibition of human ERG", "assay_type": "toxicity"}, "Mus musculus [9]": {"tested_on": "Mus musculus", "test": "Reversal of DOI-induced hyperlocomotion in CD-1 mouse assessed as reduction in distance travel at 5 mg/kg, ip administered 90 mins prior to DOI induction and measured upto 30 mins post DOI treatment (reference value: 7.8 +/- 0.8 meter)", "assay_type": "functional", "conditions": "time <= 120 min, 2 h"}, "[10]": {"biological_target": "T1, Potassium/sodium hyperpolarization-activated cyclic nucleotide-gated channel 2 (Homo sapiens, UniProt Q9UL51)", "T1 sequence (Q9UL51 whole entry)": "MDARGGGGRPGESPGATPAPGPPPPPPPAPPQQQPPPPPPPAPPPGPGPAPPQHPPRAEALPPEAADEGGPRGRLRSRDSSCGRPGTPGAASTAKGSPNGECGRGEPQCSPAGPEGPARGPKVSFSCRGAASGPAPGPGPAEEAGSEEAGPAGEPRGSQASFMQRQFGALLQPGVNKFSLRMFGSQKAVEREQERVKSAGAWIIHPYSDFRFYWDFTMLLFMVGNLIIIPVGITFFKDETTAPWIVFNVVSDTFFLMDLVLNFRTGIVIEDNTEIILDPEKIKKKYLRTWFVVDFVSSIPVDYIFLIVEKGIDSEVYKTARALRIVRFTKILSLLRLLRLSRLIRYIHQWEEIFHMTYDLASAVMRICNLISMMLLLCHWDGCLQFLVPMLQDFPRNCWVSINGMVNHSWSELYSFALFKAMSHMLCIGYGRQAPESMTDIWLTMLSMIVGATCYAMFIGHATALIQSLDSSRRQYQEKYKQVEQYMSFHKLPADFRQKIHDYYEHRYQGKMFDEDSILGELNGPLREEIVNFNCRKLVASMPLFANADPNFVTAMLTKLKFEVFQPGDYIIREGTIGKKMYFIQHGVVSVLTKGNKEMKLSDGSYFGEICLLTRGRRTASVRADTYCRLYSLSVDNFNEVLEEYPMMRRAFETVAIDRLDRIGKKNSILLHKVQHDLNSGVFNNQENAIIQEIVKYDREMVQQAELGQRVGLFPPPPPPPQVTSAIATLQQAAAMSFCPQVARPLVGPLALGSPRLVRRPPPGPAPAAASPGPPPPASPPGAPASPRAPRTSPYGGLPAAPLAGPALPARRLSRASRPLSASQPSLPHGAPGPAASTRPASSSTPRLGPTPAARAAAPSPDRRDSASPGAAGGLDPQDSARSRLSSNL", "test": "Inhibition of HCN2 (unknown origin) by patch clamp method"}, "[11]": {"test": "Plasma protein binding in human after 15 mins by equilibrium dialysis method", "assay_type": "ADME, cell-free", "conditions": "read-out: PPB (converted)"}, "Cytochrome P450 3A4": {"biological_target": "Cytochrome P450 3A4 (Homo sapiens, UniProt P08684)", "sequence (P08684 whole entry)": "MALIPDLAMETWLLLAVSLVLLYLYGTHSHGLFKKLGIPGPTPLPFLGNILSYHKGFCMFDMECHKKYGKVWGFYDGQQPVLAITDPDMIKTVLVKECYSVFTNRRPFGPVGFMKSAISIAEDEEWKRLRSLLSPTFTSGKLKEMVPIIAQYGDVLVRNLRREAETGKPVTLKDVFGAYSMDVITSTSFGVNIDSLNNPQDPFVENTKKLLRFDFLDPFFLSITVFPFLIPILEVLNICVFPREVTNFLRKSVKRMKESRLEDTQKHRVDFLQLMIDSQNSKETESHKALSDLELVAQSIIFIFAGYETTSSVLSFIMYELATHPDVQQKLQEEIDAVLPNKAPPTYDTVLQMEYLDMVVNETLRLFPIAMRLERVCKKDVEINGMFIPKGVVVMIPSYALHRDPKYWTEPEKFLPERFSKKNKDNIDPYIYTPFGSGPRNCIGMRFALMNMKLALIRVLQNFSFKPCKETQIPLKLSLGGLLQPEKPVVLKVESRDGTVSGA", "test": "Inhibition of CYP3A4 (unknown origin)", "assay_type": "ADME"}, "[12]": {"test": "Metabolic stability in dog liver microsomes assessed as intrinsic clearance at 10 uM preincubated for 5 mins followed by NADPH addition and measured upto 65 mins by LC-MS/MS analysis", "assay_type": "ADME, Canis lupus familiaris, Microsome", "conditions": "time < 70 min, read-out: CLH"}, "Mus musculus [13]": {"tested_on": "Mus musculus", "test": "Reversal of DOI-induced hyperlocomotion in CD-1 mouse assessed as reduction in rearing at 10 mg/kg, ip administered 90 mins prior to DOI induction and measured upto 30 mins post DOI treatment (reference value: 59.8 +/- 8.6 Counts)", "assay_type": "functional", "conditions": "time <= 120 min, 2 h"}, "[14]": {"biological_target": "Glutamate NMDA receptor; GRIN1/GRIN2B (Homo sapiens, UniProt Q05586+Q13224)", "sequence (Q13224 whole entry, other chains not shown)": "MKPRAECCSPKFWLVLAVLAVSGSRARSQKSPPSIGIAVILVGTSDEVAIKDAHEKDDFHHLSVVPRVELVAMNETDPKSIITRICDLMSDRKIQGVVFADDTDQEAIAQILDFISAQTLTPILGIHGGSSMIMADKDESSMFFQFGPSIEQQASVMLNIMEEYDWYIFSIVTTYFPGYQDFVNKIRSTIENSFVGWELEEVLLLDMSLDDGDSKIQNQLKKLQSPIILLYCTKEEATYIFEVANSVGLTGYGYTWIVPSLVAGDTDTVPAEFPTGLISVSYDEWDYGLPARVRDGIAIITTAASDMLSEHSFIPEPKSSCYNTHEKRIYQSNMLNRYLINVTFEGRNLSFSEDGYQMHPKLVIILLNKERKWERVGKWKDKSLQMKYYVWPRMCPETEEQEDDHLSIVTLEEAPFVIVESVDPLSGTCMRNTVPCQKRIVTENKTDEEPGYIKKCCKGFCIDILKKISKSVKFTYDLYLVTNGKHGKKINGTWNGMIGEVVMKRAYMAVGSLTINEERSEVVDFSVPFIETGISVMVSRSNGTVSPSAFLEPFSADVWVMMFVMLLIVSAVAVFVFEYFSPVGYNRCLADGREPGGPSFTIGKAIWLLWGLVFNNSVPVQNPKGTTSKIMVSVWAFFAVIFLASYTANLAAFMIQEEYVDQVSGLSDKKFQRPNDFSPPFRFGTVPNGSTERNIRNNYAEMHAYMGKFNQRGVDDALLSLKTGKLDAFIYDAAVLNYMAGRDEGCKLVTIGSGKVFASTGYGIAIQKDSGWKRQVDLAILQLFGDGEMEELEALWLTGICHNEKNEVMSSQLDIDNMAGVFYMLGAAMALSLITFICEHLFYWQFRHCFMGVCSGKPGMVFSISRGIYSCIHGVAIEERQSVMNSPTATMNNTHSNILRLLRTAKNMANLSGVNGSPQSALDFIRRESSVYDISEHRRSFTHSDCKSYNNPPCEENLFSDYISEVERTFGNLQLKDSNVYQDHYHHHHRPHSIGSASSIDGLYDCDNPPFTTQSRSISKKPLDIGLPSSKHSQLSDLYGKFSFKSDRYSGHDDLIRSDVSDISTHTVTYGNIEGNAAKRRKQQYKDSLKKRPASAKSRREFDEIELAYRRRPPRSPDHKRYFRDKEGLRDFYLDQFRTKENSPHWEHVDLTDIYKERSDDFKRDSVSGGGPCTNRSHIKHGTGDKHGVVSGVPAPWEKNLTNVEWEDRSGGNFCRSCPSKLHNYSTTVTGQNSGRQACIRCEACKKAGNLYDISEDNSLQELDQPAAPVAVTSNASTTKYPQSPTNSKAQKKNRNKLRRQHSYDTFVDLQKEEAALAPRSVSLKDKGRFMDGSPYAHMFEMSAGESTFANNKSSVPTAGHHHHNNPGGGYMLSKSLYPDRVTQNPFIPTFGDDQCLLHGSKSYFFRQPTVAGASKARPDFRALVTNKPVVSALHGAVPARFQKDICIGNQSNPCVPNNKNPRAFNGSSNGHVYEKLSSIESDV", "test": "Positive allosteric modulation of recombinant human GluN1/GluN2B receptor stably expressed in HEK293 cells assessed as increase in glycine/L-glutamate-induced channel current at -70 mV holding potential by whole cell patch clamp method", "assay_type": "cell-based"}, "[15]": {"test": "Oral bioavailability in Sprague-Dawley rat by LC-MS/MS analysis", "assay_type": "ADME, organism-based", "conditions": "in vivo"}, "Cytochrome P450 2D6": {"biological_target": "Cytochrome P450 2D6 (Homo sapiens, UniProt P10635)", "sequence (P10635 whole entry)": "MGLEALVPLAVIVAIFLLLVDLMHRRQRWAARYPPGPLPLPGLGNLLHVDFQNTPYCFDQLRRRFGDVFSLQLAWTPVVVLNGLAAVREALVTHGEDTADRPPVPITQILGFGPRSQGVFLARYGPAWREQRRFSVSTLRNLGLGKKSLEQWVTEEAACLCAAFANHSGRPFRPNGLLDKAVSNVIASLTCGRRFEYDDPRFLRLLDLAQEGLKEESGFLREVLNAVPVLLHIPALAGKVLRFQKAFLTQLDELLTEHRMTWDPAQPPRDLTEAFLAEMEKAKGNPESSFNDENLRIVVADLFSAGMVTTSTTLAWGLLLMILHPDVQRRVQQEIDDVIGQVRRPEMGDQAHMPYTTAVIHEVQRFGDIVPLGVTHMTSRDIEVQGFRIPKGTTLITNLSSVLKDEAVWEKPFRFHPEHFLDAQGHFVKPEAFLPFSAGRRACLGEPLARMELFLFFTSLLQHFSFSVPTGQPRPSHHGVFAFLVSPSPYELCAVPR", "test": "Inhibition of CYP2D6 (unknown origin)", "assay_type": "ADME"}, "[16]": {"test": "Lipophilicity, logD of compound in MeOH at 20 uM by HPLC analysis", "assay_type": "physicochemical"}, "[17]": {"test": "Metabolic stability in rat liver microsomes assessed as intrinsic clearance at 10 uM preincubated for 5 mins followed by NADPH addition and measured upto 65 mins by LC-MS/MS analysis", "assay_type": "ADME, Microsome", "conditions": "time < 70 min, read-out: CLH"}, "[18]": {"test": "Ratio of drug concentration in ip dosed CD-1 mouse brain to plasma after 1 hr by LC-MS/MS analysis", "assay_type": "ADME, organism-based", "conditions": "brain and plasma"}, "[19]": {"test": "Plasma protein binding in dog after 15 mins by equilibrium dialysis method", "assay_type": "ADME, cell-free, Canis lupus familiaris", "conditions": "read-out: PPB (converted)"}, "Cytochrome P450 2B6": {"biological_target": "T2, Cytochrome P450 2B6 (Homo sapiens, UniProt P20813)", "T2 sequence (P20813 whole entry)": "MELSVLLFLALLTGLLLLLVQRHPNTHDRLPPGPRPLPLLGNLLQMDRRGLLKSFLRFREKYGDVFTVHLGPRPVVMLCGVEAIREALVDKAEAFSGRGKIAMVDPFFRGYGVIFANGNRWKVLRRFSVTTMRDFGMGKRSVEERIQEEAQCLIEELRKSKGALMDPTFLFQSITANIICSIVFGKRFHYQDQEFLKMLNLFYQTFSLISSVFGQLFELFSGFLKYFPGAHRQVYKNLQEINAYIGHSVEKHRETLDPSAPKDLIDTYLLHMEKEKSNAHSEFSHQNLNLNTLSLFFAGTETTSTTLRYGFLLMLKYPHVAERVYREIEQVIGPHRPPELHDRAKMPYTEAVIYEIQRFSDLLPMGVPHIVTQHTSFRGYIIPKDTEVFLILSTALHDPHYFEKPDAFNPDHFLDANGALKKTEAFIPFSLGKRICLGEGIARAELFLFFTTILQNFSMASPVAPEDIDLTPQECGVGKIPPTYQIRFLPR", "test": "Inhibition of CYP2B6 (unknown origin)", "assay_type": "ADME"}, "[20]": {"test": "Aqueous solubility of compound in PBS incubated for 1 hr under shaking condition by HPLC-MS/MS analysis", "assay_type": "physicochemical"}}, "data": [{"smiles": "C[C@H](CC[C@](C)(O)C(F)(F)F)[C@H]1CC[C@H]2[C@@H]3CC=C4C[C@@](C)(O)CC[C@]4(C)[C@H]3CC[C@]12C", "note": "[DALZANEMDOR]", "values": [{"measurement": "Activity", "setting": "Mus musculus [1]", "value": 6.1, "unit": "Counts"}, {"measurement": "CLH", "setting": "[2]", "value": 18.3, "unit": "mL/min/kg"}, {"measurement": "concentration at 1.5 h", "setting": "[3]", "value": 1190, "unit": "ng/g"}, {"measurement": "clearance", "setting": "[4]", "value": 3.33, "unit": "mL/min/kg"}, {"measurement": "Activity", "setting": "Mus musculus [5]", "value": 6.9, "unit": "m"}, {"measurement": "IC50", "setting": "[6]", "value": "> 30", "unit": "µM"}, {"measurement": "Activity", "setting": "Mus musculus [7]", "value": 0.4, "unit": "m"}, {"measurement": "IC50", "setting": "[8]", "value": "> 30", "unit": "µM"}, {"measurement": "Activity", "setting": "Mus musculus [9]", "value": 4.1, "unit": "m"}, {"measurement": "IC50", "setting": "[10]", "value": "> 30", "unit": "µM"}, {"measurement": "fraction unbound at 0.25 h", "setting": "[11]", "value": 0.015}, {"measurement": "IC50", "setting": "Cytochrome P450 3A4", "value": "> 100", "unit": "µM"}, {"measurement": "microsomal CLint at 10 µM", "setting": "[12]", "value": 4.7, "unit": "µL/min/mg"}, {"measurement": "Activity", "setting": "Mus musculus [13]", "value": 7.7, "unit": "Counts"}, {"measurement": "EC50", "setting": "[14]", "value": 0.079, "unit": "µM"}, {"measurement": "bioavailability", "setting": "[15]", "value": 28, "unit": "%"}, {"measurement": "IC50", "setting": "Cytochrome P450 2D6", "value": "> 100", "unit": "µM"}, {"measurement": "logD at 20 µM", "setting": "[16]", "value": 6.2}, {"measurement": "microsomal CLint at 10 µM", "setting": "[17]", "value": 11, "unit": "µL/min/mg"}, {"measurement": "Kp at 1 h", "setting": "[18]", "value": 0.2}, {"measurement": "fraction unbound at 0.25 h", "setting": "[19]", "value": 0.028}, {"measurement": "IC50", "setting": "Cytochrome P450 2B6", "value": "> 100", "unit": "µM"}, {"measurement": "solubility at 1 h", "setting": "[20]", "value": 2.2, "unit": "µM"}]}]}
